Assay results from US7863416B2, “Nociceptin-based analgesics” (Synvax, Inc., priority 2001, dated 2011).
Numbered stars: 1 amine (or outer) side, 2 acyl side, 3 side chain; on linkers, the order of the positions; unused ones are H or OH. Square brackets hold non-standard residues; d marks the D form. Peptide text beside a SMILES is read from it. * marks the point of attachment. ξ: configuration not given here. Phe(4-NO2) = N[C@@H](Cc1ccc([N+](=O)[O-])cc1)C(=O)O; Phe(4-COOH) = N[C@@H](Cc1ccc(C(=O)O)cc1)C(=O)O; Phe(4-Me) = Cc1ccc(C[C@H](N)C(=O)O)cc1; ξNip = O=C(C1CCCN([*:1])C1)[*:2]; ξβ2hAla = CC(CN[*:1])C(=O)[*:2]; Phg = N[C@H](C(=O)O)c1ccccc1; Ac6c = NC1(C(=O)O)CCCCC1; Heptanoyl = CCCCCCC(=O)*; Propionyl = CCC(=O)*; Butyryl = CCCC(=O)*

What was measured:
human ORL1 [1] = target: T1, human ORL1 (Homo sapiens, UniProt P41146); assay: Stimulation of [35S]GTPγS binding in membranes of CHO cells transfected with human ORL-1; type: biochemical; conditions: for [35S]GTPγS Binding Percent Stimulation: Table 1, relative to nociceptin; for EC50 ± SEM, stimulation of [35S]GTPγS binding: Table 6; for Emax: read-out: % Stimulation ± SEM of [35S]GTPγS binding
T1 construct: expressed in transfected cells; host or cells: CHO cells (G418-selected)
T1 sequence (P41146 whole entry): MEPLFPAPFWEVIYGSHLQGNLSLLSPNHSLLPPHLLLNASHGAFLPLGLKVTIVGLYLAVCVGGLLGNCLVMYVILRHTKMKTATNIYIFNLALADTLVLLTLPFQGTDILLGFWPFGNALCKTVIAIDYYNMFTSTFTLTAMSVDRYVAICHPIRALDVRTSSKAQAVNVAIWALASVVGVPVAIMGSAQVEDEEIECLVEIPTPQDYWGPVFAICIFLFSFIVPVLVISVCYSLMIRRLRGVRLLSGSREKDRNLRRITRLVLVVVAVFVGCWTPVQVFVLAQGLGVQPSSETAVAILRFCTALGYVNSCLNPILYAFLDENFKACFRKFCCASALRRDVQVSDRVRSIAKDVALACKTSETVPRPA
Description: First, CHO cells transfected with human ORL-1 are scraped from tissue culture dishes into 20 mM HEPES, 1 mM EDTA, and then centrifuged at 500×g for 10 minutes. The cells are then re-suspended in this buffer and homogenized using a Polytron Homogenizer.
The cellular homogenate is next centrifuged at 20,000×g for 20 minutes. Following this, the resulting pellet is re-suspended in a buffer containing 20 mM HEPES, 10 mM MgCl2, and 100 mM NaCl, having a resulting pH of 7.4. The suspension is then re-centrifuged at 20,000×g and suspended once more in the above-listed buffer. The pellet may be frozen at −70° C. prior to the final centrifugation. For the binding assay, membranes (10-20 μg protein) are incubated with [^35S]GTPγγS (50 pM), GDP (usually 10 μM), and the desired compound. The total volume of the mixture is 1 ml, which is incubated for 60 min at 25° C.
Following incubation, samples are filtered over glass fiber filters and counted. […]
In these [^35S]GTPγS assays, binding was conducted as described above. EC50 values and percent stimulation were determined using the program Prism.

human ORL1 [2] = target: T1, human ORL1; assay: [3H]nociceptin binding to membranes of CHO cells transfected with human ORL1; conditions: for Hill Coefficient: Table 5

| Structure (SMILES) | Emax (human ORL1 [1]) [%] | Hill Coefficient (human ORL1 [2]) | further results |
| --- | --- | --- | --- |
| CCCC(=O)N[C@@H](CCCNC(=N)N)C(=O)N[C@@H](Cc1ccc(O)cc1)C(=O)N[C@@H](Cc1ccc(O)cc1)C(=O)N[C@@H](CCCNC(=N)N)C(=O)N[C@@H](Cc1c[nH]c2ccccc12)C(=O)N[C@@H](CCCNC(=N)N)C(N)=O [IV-15-A, Butryl-RYYRWR-NH2] (Butyryl-RYYRWR-NH2) |  |  | [35S]GTPγS Binding Percent Stimulation (human ORL1 [1]): 63% |
| CCC(=O)N[C@@H](CCCNC(=N)N)C(=O)N[C@@H](Cc1ccc(O)cc1)C(=O)N[C@@H](Cc1ccc(O)cc1)C(=O)N[C@@H](CCCNC(=N)N)C(=O)N[C@@H](Cc1c[nH]c2ccccc12)C(=O)N[C@@H](CCCNC(=N)N)C(N)=O [IV-16-C, Propionyl-RYYRWR-NH2] (Propionyl-RYYRWR-NH2) |  |  | [35S]GTPγS Binding Percent Stimulation (human ORL1 [1]): 82%; agonist/antagonist character at ORL1 (human ORL1 [1]; in words): nearly full agonist; IC50 (human ORL1 [2]): 1.2 nM |
| CCCCCCC(=O)N[C@@H](CCCNC(=N)N)C(=O)N[C@@H](Cc1ccc(O)cc1)C(=O)N[C@@H](Cc1ccc(O)cc1)C(=O)N[C@@H](CCCNC(=N)N)C(=O)N[C@@H](Cc1c[nH]c2ccccc12)C(=O)N[C@@H](CCCNC(=N)N)C(N)=O [IV-18-C, Heptanoyl-RYYRWR-NH2] (Heptanoyl-RYYRWR-NH2) |  |  | [35S]GTPγS Binding Percent Stimulation (human ORL1 [1]): 54%; IC50 (human ORL1 [2]): 2.6 nM |
| N=C(N)NCCC[C@H](NC(=O)[C@H](Cc1c[nH]c2ccccc12)NC(=O)[C@H](CCCNC(=N)N)NC(=O)[C@H](Cc1ccc(O)cc1)NC(=O)[C@H](Cc1ccc(O)cc1)NC(=O)[C@H](CCCNC(=N)N)NC(=O)C1CCCNC1)C(N)=O (stereo partly drawn) [VII-1-A, Nipacotyl-Arg-Tyr-Tyr-Arg-Trp-Arg-NH2] (ξNip-RYYRWR-NH2) | < 20 | 0.97 | EC50 ± SEM, stimulation of [35S]GTPγS binding (human ORL1 [1]): FLAT |
| CC(CN)C(=O)N[C@@H](CCCNC(=N)N)C(=O)N[C@@H](Cc1ccc(O)cc1)C(=O)N[C@@H](Cc1ccc(O)cc1)C(=O)N[C@@H](CCCNC(=N)N)C(=O)N[C@@H](Cc1c[nH]c2ccccc12)C(=O)N[C@@H](CCCNC(=N)N)C(N)=O (stereo partly drawn) [VII-3-A, β-aminoisobutryl-Arg-Tyr-Tyr-Arg-Trp-Arg-NH2] (ξβ2hAla-RYYRWR-NH2) | 29.1 ± 1.9 | 0.72 |  |
| N=C(N)NCCC[C@H](NC(=O)[C@H](Cc1c[nH]c2ccccc12)NC(=O)[C@H](CCCNC(=N)N)NC(=O)[C@H](Cc1ccc(O)cc1)NC(=O)[C@H](Cc1ccc(O)cc1)NC(=O)[C@H](CCCNC(=N)N)NC(=O)C1(N)CCCCC1)C(N)=O [VII-4-B, 1-aminocyclohexanoyl-Arg-Tyr-Tyr-Arg-Trp-Arg-NH2] (H-[Ac6c]RYYRWR-NH2) | < 20 | 1.0 | EC50 ± SEM, stimulation of [35S]GTPγS binding (human ORL1 [1]): FLAT |
| CC(=O)N[C@@H](CCCNC(=N)N)C(=O)N[C@H](C(=O)N[C@H](C(=O)N[C@@H](CCCNC(=N)N)C(=O)N[C@@H](Cc1c[nH]c2ccccc12)C(=O)N[C@@H](CCCNC(=N)N)C(N)=O)c1ccccc1)c1ccccc1 [VII-11-B, Ac-Arg-Phg-Phg-Arg-Trp-Arg-NH2] (Ac-R[Phg][Phg]RWR-NH2) |  | 0.93 |  |
| CC(=O)N[C@@H](CCCNC(=N)N)C(=O)N[C@@H](Cc1ccc(O)cc1)C(=O)N[C@H](C(=O)N[C@@H](CCCNC(=N)N)C(=O)N[C@@H](Cc1c[nH]c2ccccc12)C(=O)N[C@@H](CCCNC(=N)N)C(N)=O)c1ccccc1 [VII-13-B, Ac-Arg-Tyr-Phg-Arg-Trp-Arg-NH2] (Ac-RY[Phg]RWR-NH2) |  | 0.73 |  |
| CC(=O)N[C@@H](CCCNC(=N)N)C(=O)N[C@@H](Cc1ccc(C)cc1)C(=O)N[C@@H](Cc1ccc(O)cc1)C(=O)N[C@@H](CCCNC(=N)N)C(=O)N[C@@H](Cc1c[nH]c2ccccc12)C(=O)N[C@@H](CCCNC(=N)N)C(N)=O [VII-15-B, Ac-Arg-Phe(4-Me)-Tyr-Arg-Trp-Arg-NH2] (Ac-R[Phe(4-Me)]YRWR-NH2) | 59.8 ± 16.2 | 0.79 |  |
| CC(=O)N[C@@H](CCCNC(=N)N)C(=O)N[C@@H](Cc1ccc(C)cc1)C(=O)N[C@@H](Cc1ccc(C)cc1)C(=O)N[C@@H](CCCNC(=N)N)C(=O)N[C@@H](Cc1c[nH]c2ccccc12)C(=O)N[C@@H](CCCNC(=N)N)C(N)=O [VII-17-B, Ac-Arg-Phe(4-Me)-Phe(4-Me)-Arg-Trp-Arg-NH2] (Ac-R[Phe(4-Me)][Phe(4-Me)]RWR-NH2) | < 20 | 1.06 | EC50 ± SEM, stimulation of [35S]GTPγS binding (human ORL1 [1]): FLAT |
| CC(=O)N[C@@H](CCCNC(=N)N)C(=O)N[C@@H](Cc1ccc(C(=O)O)cc1)C(=O)N[C@@H](Cc1ccc(O)cc1)C(=O)N[C@@H](CCCNC(=N)N)C(=O)N[C@@H](Cc1c[nH]c2ccccc12)C(=O)N[C@@H](CCCNC(=N)N)C(N)=O [VII-19-B, Ac-Arg-Phe(4-COOH)-Tyr-Arg-Trp-Arg-NH2] (Ac-R[Phe(4-COOH)]YRWR-NH2) | 45.5 ± 8 | 1.0 |  |
| CC(=O)N[C@@H](CCCNC(=N)N)C(=O)N[C@@H](Cc1ccc([N+](=O)[O-])cc1)C(=O)N[C@@H](Cc1ccc(O)cc1)C(=O)N[C@@H](CCCNC(=N)N)C(=O)N[C@@H](Cc1c[nH]c2ccccc12)C(=O)N[C@@H](CCCNC(=N)N)C(N)=O [VII-23-B, Ac-Arg-Phe(NO2)-Tyr-Arg-Trp-Arg-NH2] (Ac-R[Phe(4-NO2)]YRWR-NH2) | 56.6 ± 20.4 | 0.74 |  |
